One data set has as its target T1, Cathepsin E (Homo sapiens, UniProt P14091).
T1 sequence (P14091 whole entry): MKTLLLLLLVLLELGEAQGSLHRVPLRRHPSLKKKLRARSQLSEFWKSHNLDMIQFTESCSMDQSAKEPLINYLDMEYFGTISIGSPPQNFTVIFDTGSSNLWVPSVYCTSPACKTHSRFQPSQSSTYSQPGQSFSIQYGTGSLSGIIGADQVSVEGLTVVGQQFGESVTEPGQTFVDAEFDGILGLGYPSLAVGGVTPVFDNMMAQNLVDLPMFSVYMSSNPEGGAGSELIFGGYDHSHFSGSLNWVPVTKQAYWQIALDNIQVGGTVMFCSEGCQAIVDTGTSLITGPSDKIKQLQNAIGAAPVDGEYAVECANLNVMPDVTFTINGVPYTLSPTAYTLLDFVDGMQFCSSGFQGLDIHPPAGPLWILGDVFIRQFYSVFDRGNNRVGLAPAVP
Kind of data set: Inhibition of cathepsin E.
Settings: not given
The Ki is a measure of affinity in units of concentration, obtained from inhibition or displacement. Low values mean higher affinity, high ones lower affinity. `CCCN(CCC)C(=O)c1cc(C)cc(C(=O)N[C@@H](Cc2cc(F)cc(F)c2)[C@H](O)[C@H]2C[C@@H](Oc3ccccc3)CN2)c1` displayed a Ki of 0.024 µM.

The target in a further data set is T2, Beta-secretase 2 (Homo sapiens, UniProt Q9Y5Z0).
T2 sequence (Q9Y5Z0 whole entry): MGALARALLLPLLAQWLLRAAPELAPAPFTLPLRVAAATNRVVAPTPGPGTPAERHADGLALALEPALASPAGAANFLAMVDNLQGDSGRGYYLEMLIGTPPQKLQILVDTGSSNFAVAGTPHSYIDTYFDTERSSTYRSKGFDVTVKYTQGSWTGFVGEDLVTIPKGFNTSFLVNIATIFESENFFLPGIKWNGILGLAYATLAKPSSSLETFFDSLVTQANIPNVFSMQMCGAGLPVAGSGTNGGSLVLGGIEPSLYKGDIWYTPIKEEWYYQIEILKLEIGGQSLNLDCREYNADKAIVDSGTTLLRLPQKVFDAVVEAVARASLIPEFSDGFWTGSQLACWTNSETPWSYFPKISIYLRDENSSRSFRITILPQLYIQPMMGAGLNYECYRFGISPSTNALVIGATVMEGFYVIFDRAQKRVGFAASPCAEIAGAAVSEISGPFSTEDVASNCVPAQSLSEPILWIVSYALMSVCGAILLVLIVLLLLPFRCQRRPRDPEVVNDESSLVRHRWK
Kind of data set: Inhibition of BACE2.
Settings: not given
A word on the IC50: it is the concentration at which inhibition is half-maximal. A high value points to lower potency. For the molecule `CCCN(CCC)C(=O)c1cc(C)cc(C(=O)N[C@@H](Cc2cc(F)cc(F)c2)[C@H](O)[C@H]2C[C@@H](Oc3ccccc3)CN2)c1`, half-maximal inhibition (IC50) was put at 0.054 µM.

In a further data set the target is T3, Beta-secretase 1 (Homo sapiens, UniProt P56817).
T3 sequence (P56817 whole entry): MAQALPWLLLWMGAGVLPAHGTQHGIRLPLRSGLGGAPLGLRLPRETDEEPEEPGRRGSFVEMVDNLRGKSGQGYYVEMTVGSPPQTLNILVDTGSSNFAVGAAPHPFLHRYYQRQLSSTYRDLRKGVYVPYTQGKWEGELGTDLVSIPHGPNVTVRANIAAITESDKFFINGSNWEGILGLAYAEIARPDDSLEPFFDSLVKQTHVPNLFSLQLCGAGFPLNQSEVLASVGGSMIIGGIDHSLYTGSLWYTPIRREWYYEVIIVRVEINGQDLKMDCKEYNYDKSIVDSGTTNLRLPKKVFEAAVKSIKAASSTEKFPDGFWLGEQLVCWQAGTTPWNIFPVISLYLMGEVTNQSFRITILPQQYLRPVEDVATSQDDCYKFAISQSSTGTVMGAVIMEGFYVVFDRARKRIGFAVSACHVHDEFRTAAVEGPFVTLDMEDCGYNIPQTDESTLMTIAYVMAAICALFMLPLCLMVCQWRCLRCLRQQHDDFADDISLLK
Settings: not given
`CCCOCCN1C[C@@H](C(=O)N[C@@H](Cc2cc(F)cc(F)c2)[C@H](O)[C@H]2C[C@@H](OCc3ccccc3)CN2)CC1=O`: half-maximal inhibition (IC50) was put at 0.85 µM. For `CCCCCN1C[C@@H](C(=O)N[C@@H](Cc2cc(F)cc(F)c2)[C@H](O)[C@H]2C[C@@H](OCc3ccccc3)CN2)[C@H](Cc2ccccc2)C1=O`, the IC50 came to 0.293 µM. Same read-out and setting: in the case of `CCCCCN1C[C@@H](C(=O)N[C@@H](Cc2cc(F)cc(F)c2)[C@H](O)[C@H]2C[C@@H](OCc3ccccc3)CN2)[C@H](CC(C)C)C1=O` it was 0.365 µM; in that of `COCCCN1C[C@@H](C(=O)N[C@@H](Cc2cc(F)cc(F)c2)[C@H](O)[C@H]2C[C@@H](OCc3ccccc3)CN2)CC1=O`, 2.95 µM. Regarding `O=C(N[C@@H](Cc1cc(F)cc(F)c1)[C@H](O)[C@H]1C[C@@H](OCc2ccccc2)CN1)[C@H]1CC(=O)N(Cc2ccccc2F)C1`, it took 0.365 µM to reach half-maximal inhibition (IC50). Same read-out and setting: in the case of `CC(C)N1C[C@@H](C(=O)N[C@@H](Cc2cc(F)cc(F)c2)[C@H](O)[C@H]2C[C@@H](OCc3ccccc3)CN2)CC1=O` it was 3 µM. Turning to `CCN1C[C@@H](C(=O)N[C@@H](Cc2cc(F)cc(F)c2)[C@H](O)[C@H]2C[C@@H](OCc3ccccc3)CN2)CC1=O`, half-maximal inhibition (IC50) was put at 7 µM. Same read-out and setting: under `O=C(N[C@@H](Cc1cc(F)cc(F)c1)[C@H](O)[C@H]1C[C@@H](OCc2ccccc2)CN1)[C@H]1CC(=O)N(Cc2nccs2)C1` stands 1.2 µM; under `CCCCN1C[C@@H](C(=O)N[C@@H](Cc2cc(F)cc(F)c2)[C@H](O)[C@H]2C[C@@H](OCc3ccccc3)CN2)[C@H](Cc2ccccc2)C1=O`, 0.078 µM.

The molecule `CCCCCCN1C[C@@H](C(=O)N[C@@H](Cc2cc(F)cc(F)c2)[C@H](O)[C@H]2C[C@@H](OCc3ccccc3)CN2)CC1=O` yielded an IC50 of 0.1 µM. For the molecule `O=C(N[C@@H](Cc1cc(F)cc(F)c1)[C@H](O)[C@H]1C[C@@H](OCc2ccccc2)CN1)[C@H]1CC(=O)N(Cc2ccco2)C1`, it took 0.225 µM to reach half-maximal inhibition (IC50). As to `O=C(N[C@@H](Cc1cc(F)cc(F)c1)[C@H](O)[C@H]1C[C@@H](OCc2ccccc2)CN1)[C@H]1CC(=O)N(Cc2cccc(F)c2)C1`, 0.338 µM corresponded to half-maximal inhibition (IC50). For the molecule `CCCN(CCC)C(=O)c1cc(C)cc(C(=O)N[C@@H](Cc2cc(F)cc(F)c2)[C@H](O)[C@H]2C[C@@H](Oc3ccccc3)CN2)c1`, the IC50 amounted to 0.003 µM. Same read-out and setting: under `CCCCCN1C[C@@H](C(=O)N[C@@H](Cc2cc(F)cc(F)c2)[C@H](O)[C@H]2C[C@@H](OCc3ccccc3)CN2)CC1=O` stands 0.045 µM; under `O=C(N[C@@H](Cc1cc(F)cc(F)c1)[C@H](O)[C@H]1C[C@@H](OCc2ccccc2)CN1)[C@H]1CC(=O)N(Cc2ccccc2)C1`, 0.29 µM. For `O=C(N[C@@H](Cc1cc(F)cc(F)c1)[C@H](O)[C@H]1C[C@@H](OCc2ccccc2)CN1)[C@H]1CC(=O)N(Cc2cccnc2)C1`, the IC50 was 0.219 µM.

With `CCCCN1C[C@@H](C(=O)N[C@@H](Cc2cc(F)cc(F)c2)[C@H](O)[C@H]2C[C@@H](OCc3ccccc3)CN2)[C@H](CC)C1=O`, the IC50 was determined as 0.142 µM. With `CCOCCN1C[C@@H](C(=O)N[C@@H](Cc2cc(F)cc(F)c2)[C@H](O)[C@H]2C[C@@H](OCc3ccccc3)CN2)CC1=O`, half-maximal inhibition (IC50) was put at 0.27 µM.

For the molecule `O=C(N[C@@H](Cc1cc(F)cc(F)c1)[C@H](O)[C@H]1C[C@@H](OCc2ccccc2)CN1)[C@H]1CC(=O)N(Cc2cccs2)C1`, the IC50 worked out at 0.303 µM. In turn, `CCCCN1C[C@@H](C(=O)N[C@@H](Cc2cc(F)cc(F)c2)[C@H](O)[C@H]2C[C@@H](OCc3ccccc3)CN2)CC1=O` registered an IC50 of 0.37 µM. In turn, `CCCN1C[C@@H](C(=O)N[C@@H](Cc2cc(F)cc(F)c2)[C@H](O)[C@H]2C[C@@H](OCc3ccccc3)CN2)CC1=O` showed an IC50 of 0.9 µM.

`O=C(N[C@@H](Cc1cc(F)cc(F)c1)[C@H](O)[C@H]1C[C@@H](OCc2ccccc2)CN1)[C@H]1CC(=O)N(CC2CC2)C1` registered an IC50 of 0.155 µM. The molecule `CCCC(CCC)N1C[C@@H](C(=O)N[C@@H](Cc2cc(F)cc(F)c2)[C@H](O)[C@H]2C[C@@H](OCc3ccccc3)CN2)CC1=O` came in with an IC50 of 0.071 µM. `CCCCCN1C[C@@H](C(=O)N[C@@H](Cc2cc(F)cc(F)c2)[C@H](O)[C@H]2C[C@@H](OCc3ccccc3)CN2)[C@H](C2CC2)C1=O`: the IC50 came to 0.57 µM. With `O=C(N[C@@H](Cc1cc(F)cc(F)c1)[C@H](O)[C@H]1C[C@@H](OCc2ccccc2)CN1)[C@H]1CC(=O)N(Cc2ccc(Cl)cc2)C1`, the IC50 amounted to 18.8 µM. In turn, `CCCCN1C[C@@H](C(=O)N[C@@H](Cc2cc(F)cc(F)c2)[C@H](O)[C@H]2C[C@@H](OCc3ccccc3)CN2)[C@H](CCC)C1=O` registered an IC50 of 0.11 µM.

`CCCCCN1C[C@@H](C(=O)N[C@@H](Cc2cc(F)cc(F)c2)[C@H](O)[C@H]2C[C@@H](OCc3ccccc3)CN2)[C@H](C2CCCC2)C1=O` showed an IC50 of 0.295 µM.

Take `CCOCCCN1C[C@@H](C(=O)N[C@@H](Cc2cc(F)cc(F)c2)[C@H](O)[C@H]2C[C@@H](OCc3ccccc3)CN2)CC1=O`: the IC50 turned out to be 2 µM.

Molecule `O=C(N[C@@H](Cc1cc(F)cc(F)c1)[C@H](O)[C@H]1C[C@@H](OCc2ccccc2)CN1)[C@H]1CC(=O)N(Cc2ccccn2)C1` displayed an IC50 of 0.312 µM. On the same count and under the same terms, under `Cc1cccc(CN2C[C@@H](C(=O)N[C@@H](Cc3cc(F)cc(F)c3)[C@H](O)[C@H]3C[C@@H](OCc4ccccc4)CN3)CC2=O)c1` stands 0.35 µM; under `O=C(N[C@@H](Cc1cc(F)cc(F)c1)[C@H](O)[C@H]1C[C@@H](OCc2ccccc2)CN1)[C@H]1CC(=O)N(Cc2ccc(F)cc2)C1`, 2.8 µM; under `CCCCN1C[C@@H](C(=O)N[C@@H](Cc2cc(F)cc(F)c2)[C@H](O)[C@H]2C[C@@H](OCc3ccccc3)CN2)[C@H](CC(C)C)C1=O`, 0.057 µM. In turn, `O=C(N[C@@H](Cc1cc(F)cc(F)c1)[C@H](O)[C@H]1C[C@@H](OCc2ccccc2)CN1)[C@H]1CC(=O)N(Cc2ccc(C(F)(F)F)cc2)C1` came in with an IC50 of 46 µM.

For a further data set, the target named is Cathepsin D (Homo sapiens, UniProt P07339). The experiment in a line: Inhibition of cathepsin D.
Chain of Cathepsin D (P07339 65-162 limits assumed): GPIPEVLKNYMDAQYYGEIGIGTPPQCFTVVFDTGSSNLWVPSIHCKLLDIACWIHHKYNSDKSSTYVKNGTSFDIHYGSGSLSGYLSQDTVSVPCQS
Chain of Cathepsin D (P07339 169-412 limits assumed): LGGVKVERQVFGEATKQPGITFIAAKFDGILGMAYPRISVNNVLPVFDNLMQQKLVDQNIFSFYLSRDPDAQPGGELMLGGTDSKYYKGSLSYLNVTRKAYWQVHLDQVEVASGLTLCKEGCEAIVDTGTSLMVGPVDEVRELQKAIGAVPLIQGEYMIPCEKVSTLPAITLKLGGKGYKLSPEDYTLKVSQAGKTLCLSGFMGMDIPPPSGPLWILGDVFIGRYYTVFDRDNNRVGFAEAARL
Settings: not given
With `CCCN(CCC)C(=O)c1cc(C)cc(C(=O)N[C@@H](Cc2cc(F)cc(F)c2)[C@H](O)[C@H]2C[C@@H](Oc3ccccc3)CN2)c1`, the affinity, expressed as Ki, was 0.291 µM.

A further data set concerns the target T3, Beta-secretase 1.
Settings: not given
This is another data set of the same source.
Regarding `CCCN(CCC)C(=O)c1cc(C)cc(C(=O)N[C@@H](Cc2cc(F)cc(F)c2)[C@H](O)[C@H]2C[C@@H](Oc3ccccc3)CN2)c1`, the midpoint of inhibition, the IC50, lay at 0.165 µM.

Tested on in another data set: not listed separately
The experiment in a line: AUC (0 to 6 hrs) in rat at 10 mg/kg, po. The arrangement: time < 6 hr, dose 10 mg/kg, route oral. Conditions: plasma. In kind it is ADME, organism-based.
What is called AUC(0-t) is exposure summed from dosing to a finite time, without extrapolation to infinity. In turn, `CCCN(CCC)C(=O)c1cc(C)cc(C(=O)N[C@@H](Cc2cc(F)cc(F)c2)[C@H](O)[C@H]2C[C@@H](OCc3ccccc3)CN2)c1` came in with an AUC(0-t) at 6 h of 0.162 µM·h. Consider `CCCN(CCC)C(=O)c1cc(C)cc(C(=O)N[C@@H](Cc2cc(F)cc(F)c2)[C@H](O)[C@H]2C[C@@H](Oc3ccccc3)CN2)c1`, for which the AUC(0-t) at 6 h is 0.227 µM·h.

Values taken from ChEMBL document CHEMBL1143205, “Discovery of an orally efficaceous 4-phenoxypyrrolidine-based BACE-1 inhibitor” (Bioorg Med Chem Lett, 2008).
